According to a melting point compilation (Tetko et al.; mined from patent text by program, amines drawn as free bases though some values may be those of a salt):

Structure (SMILES)	melting point [°C]
CCn1nnnc1CCC1(C)Cn2cc([N+](=O)[O-])nc2O1 (stereo not drawn)	135 to 137
CS(=O)(=O)Nc1ccc(NC(=O)C(=O)N2CCC(Cc3ccccc3)CC2)cc1	221 to 225
CC(=O)COc1ccc(Cl)cc1C(=O)O	90 to 91
CC(C)(C)c1ccc(OC2CN(C(c3ccccc3)c3ccccc3)C2)cc1	126 to 127
O=C(O)C(Cc1cc(Oc2c(Cl)cc(C(F)(F)F)cc2Cl)ccc1SC(F)(F)F)C(=O)O	250
O=C1N(Cc2csc(-c3ccc(C(F)(F)F)cc3)n2)c2ccccc2C12COc1cc3c(cc12)OCO3 (stereo not drawn)	151 to 153
CC(C)(OCc1cc2nc(C(F)(F)F)ccc2n1S(=O)(=O)c1ccccc1)C(=O)O	122 to 125
CC1=NN(C)c2nc(C)c(CCN3CCN(c4n[nH]c5ccccc45)CC3)c(=O)n2C1	199
O=C1CCC(N2Cc3c(OCc4ccc(CN5CCC(F)(F)CC5)cc4)cccc3C2=O)C(=O)N1 (stereo not drawn)	193 to 195
FC(F)c1cccc(C#CCCn2nc3ccccc3n2)n1	102 to 103
c1ccc2c(c1)OC(c1ccc(OCCN3CCCCC3)cc1)c1c-2sc2ccccc12 (stereo not drawn)	107
O=c1cc(C(F)(F)F)ccn1-c1c(Cl)cc(CO)cc1Cl	151 to 152
COCCc1nc2c(N)nc3ccccc3c2n1CCOCCNC(=O)Nc1ccccc1	171 to 174
COC(=O)c1ccc2c(nc(C)n2C)c1C(=O)OC	205 to 208
CCc1ccc2c(c1)C(O)(c1ccccn1)CC(C)(C)CO2 (stereo not drawn)	84
COc1cc(OC)c2[nH]c3c(C(=O)Nc4ccc(CCN(C)Cc5ccc(OC)c(OC)c5)cc4)cccc3c(=O)c2c1	> 260
O=C(OCCCl)c1ccccc1CS(=O)(=O)Cl	66 to 67
COC(=O)Nc1cc(Cl)nc(N)n1	225 to 226
CN(CC(N)=O)S(=O)(=O)Cc1cccc(C(F)(F)F)c1	146 to 148
CCOc1ccc(NCc2cc(OC)c(OC)c(OC)c2)cc1	76 to 78
CCCc1c(SCCCCSc2nc3ccc(C(=O)O)cc3[nH]2)ccc(C(C)=O)c1O	90 to 95
COC1=CC(=O)C(OC)=C(CCCC2=C(OC)C(=O)C=C(OC)C2=O)C1=O	157 to 159
CCS(=O)(=O)CC(=O)Nc1c(C)cccc1C	128 to 130
CCC(=O)NCC1CC1c1cccc2nnsc12 (stereo not drawn)	67 to 69
CN1CC(C(=O)COC(=O)c2ccccc2)CC2c3cccc4[nH]cc(c34)CC21 (stereo not drawn)	163 to 165

Structure (SMILES)	melting point [°C]
CCCCCCCCCCC(C)(C)C(=O)NC1CCCNC(=O)C1 (stereo not drawn)	41 to 42
COC(=O)COc1ccc2cc(-c3cnc(-c4cn(Cc5ccccc5)c5ccccc45)o3)ccc2c1	204 to 207
FC(F)(F)c1cc(-c2cc3ccccc3o2)c2cccc(C(F)(F)F)c2n1	129 to 130
c1ccc2c3c([nH]c2c1)C(c1ccc2c(c1)OCCO2)NCC3 (stereo not drawn)	144
O=[N+]([O-])c1cnc2ccc(Br)cn12	160 to 161
CCCCCCCCCCCCNc1ccc(OCC)cc1	38 to 39
O=C(C1=C(c2ccccc2)c2ccc(O)cc2C1)c1ccc(O)cc1	191 to 192
COc1ccc2c(c1)c(C#N)cn2C	100 to 104
C(=CCON(c1ccccc1)c1ccccc1)CON(c1ccccc1)c1ccccc1	74 to 76
O=C(O)CN1C(=O)C(=Cc2ccncc2)SC1=S	263 to 266
Cc1ncsc1C(=O)Nc1cnc(-n2nc(C(F)(F)F)cc2C2CC2)nc1	148 to 152
CCOC(=O)C(Cc1cccc(OC)c1Oc1ccc([N+](=O)[O-])cc1)(NC(C)=O)C(=O)OCC	189 to 190
O=C(O)c1cc2ccc(C3OC(CO)C(O)C(O)C3O)cc2oc1=O (stereo not drawn)	250 to 255
Fc1ccccc1C1=NCc2n[nH]cc2-c2ccc(Cl)cc21	208 to 210
COC1(OC)CCC(O)(c2ccc(C)cc2)CC1	93 to 97
O=C1C[C@H](O)C[C@@H](/C=C/c2cnc3ccccc3c2-c2cccs2)O1	102 to 104
COc1nc(NC(=S)NS(=O)(=O)c2ccccc2)nc(OC)n1	148 to 150
Fc1cc(-c2cc(C(F)(F)F)n3cnc(-c4ccncc4)c3n2)ccc1C(F)(F)F	267
CCCc1nc2c(N)nc3cc(OCCCNS(C)(=O)=O)ccc3c2n1CC(C)C	166 to 168
O=C(O)c1ccc(C(F)(F)C(F)(F)F)cc1[N+](=O)[O-]	124 to 135
CCc1ncnc2ccc(C#Cc3cc(OC)ccc3OC)cc12	103 to 105
CCOC(=O)C1=C(C)NC(C(OCC)OCC)=C(C(=O)OCC)C1c1ccccc1OC (stereo not drawn)	105 to 107
Cn1[nH]c(=O)n(-c2ccc(Cl)cc2F)c1=S	75
Cc1ccc(-n2nc(C#N)cc2-c2ccc(S(C)(=O)=O)cc2)cc1F	167 to 168
CP(=O)(O)C(CCc1ccccc1)NC(=O)C(F)(F)F (stereo not drawn)	138 to 145

Structure (SMILES)	melting point [°C]
COc1cc(CC2(C#N)c3cc(Cl)c(Cl)cc3C=CN2C(=O)c2ccccc2)cc(OC)c1OC (stereo not drawn)	193 to 195
CSCCn1nc(-c2ccc(OCCCC(F)(F)F)cc2)oc1=O	105
Cn1nc(N)nc1NCCCOc1cccc(CN2C(=O)c3ccccc3C2=O)c1	55 to 57
Cc1cc(-c2ccc(Cl)cc2)nc2c(-c3nc(-c4cccc(S(N)(=O)=O)c4)no3)cnn12	275
CCCC(CCC)C(=O)O[C@H]1CCC=C2C=C[C@H](C)[C@H](CC[C@@H]3C[C@@H](O)CC(=O)O3)[C@H]21	92 to 94
C1=C(OCc2ccccc2)CCN(Cc2nc3ccccc3[nH]2)C1	170 to 172
CCCCNS(=O)(=O)c1cccc(NC(=O)NS(=O)(=O)c2ccc(C)cc2)c1	153
O=C(c1ccc([N+](=O)[O-])cc1)N1CCCCc2ccccc21	148 to 150
CCOC(Cc1ccc(OCCN(C)c2nc3ccccc3o2)cc1)C(N)=S (stereo not drawn)	46 to 48
O=C1N[C@H](C(=O)NCCO[N+](=O)[O-])[C@@H](c2ccccc2)O1	122 to 124
CC(=O)N1c2ccccc2-n2cc(Cc3cccnc3)c(=O)c3cccc1c32	143 to 144
CC(C)c1cccc(C(C)C)c1NC(=O)N(c1ccccc1)c1nnn(CCCCCCCC=O)n1	104 to 106
Cc1cc(C2C(=O)Oc3c2cc(C(C)(C)C)cc3C(C)(C)C)cc(C)c1OC(=O)C(C)(C)C (stereo not drawn)	140 to 142
COC1(c2ccc(C#Cc3cc(F)cc(F)c3NC(=O)C(C)(C)C)cc2)CCOCC1	77 to 79
NCC1Cc2cc(Cl)c3[nH]c(=O)ccc3c2O1 (stereo not drawn)	> 300
O=C1c2cc(OC(F)(F)F)ccc2S(=O)(=O)N1CCCCBr	77 to 78
CCOC(=O)c1c(CN2CCOCC2)nc2cc(OC)c(OC)cc2c1-c1ccc(OC)cc1	165 to 166
Cc1nc(-c2cccc(Cl)c2)c2cc(C(O)(c3ccc(Cl)cc3)c3cncn3C)ccc2n1 (stereo not drawn)	223
O=C1c2ccccc2C(O)(c2ccccc2)N1CCCN1CC=C(c2ccccc2)CC1 (stereo not drawn)	123
Cn1c(CN)nc(-c2ccncn2)cc1=O	153 to 155
COC(=O)c1ccc(S(C)(=O)=O)c(COc2ccnn2C)c1Cl	70
N#CC1(C#N)C2CCC(C2)C1(Cl)Cl (stereo not drawn)	148
O=C(OCN1C(=O)C2CCCN2S1(=O)=O)c1c(Cl)cccc1Cl (stereo not drawn)	92 to 93.5
ClCc1cccc2c(-c3ccccc3)nccc12	104
Cc1nc2c3c(c(C(=O)N(C)C)cc2n1C)CCC(c1ccccc1)N3 (stereo not drawn)	167 to 170

Structure (SMILES)	melting point [°C]
C=CC1=C(C(=O)O)C(C(F)(F)F)Oc2ccc(Cl)cc21 (stereo not drawn)	143 to 145
Cc1cc2c(cc1C#N)OCC(C)(C)C=C2c1ccccn1	136
Cc1cc(-c2cc(C(F)(F)F)n3ncc(-c4nc(-c5cnc(N)nc5)no4)c3n2)ccc1Cl	272
CC1CCN(C(=O)C(C)Oc2ccc(Oc3ccc(C(F)(F)F)cn3)cc2)O1 (stereo not drawn)	94 to 97
Cc1ccc(N2CCCN(c3ccnc4sc(C(N)=O)c(N)c34)CC2)cc1F	79 to 83
CCN1c2ncc(/C=C/c3ccncc3)cc2C(=O)N(C)c2ccc(Cl)nc21	150 to 152
CC(=O)SCC(Cc1ccccc1)C(=O)Nc1cc2ccccc2cc1C(=O)O (stereo not drawn)	138 to 141
N=c1cc(NC(=S)Nc2ccccc2)nc2n1CCCS2	157 to 158
Cn1cccc1-c1cc2cccnc2[nH]1	183
CC(=S)NC(C(=O)NCc1ccccc1)c1ccco1 (stereo not drawn)	78 to 80
CN(C)CCOc1ccc2[nH]c(C(=O)N3CC(CCl)c4c3cc([N+](=O)[O-])c3cc([N+](=O)[O-])ccc43)cc2c1 (stereo not drawn)	263 to 264
COc1ccc2cc(C(C)C(=O)NCC3(C)CCC4C(=C(C)C(C)=CC4(C)O)O3)ccc2c1 (stereo not drawn)	67 to 70
Cn1c(C(F)(F)F)cc(=O)n(-c2cc(OCSc3ccc(Cl)cc3)c(Cl)cc2F)c1=O	141 to 142
COc1ccc2nscc2c1	51 to 55
Nc1nc(N)c(-c2ccc(Cl)cc2Cl)c(C(=O)O)n1	221
CN1CCN(c2ccc(-c3cnc4c(c3)N(Cc3c(F)ccc(F)c3Cl)CCN4)cn2)CC1	219
CC(C)(NC(=O)C(O)C(N)Cc1ccc(S(C)(=O)=O)cc1)C(=O)O (stereo not drawn)	220 to 222
CCN(CCO)CCCNc1ncc2cc(-c3c(Cl)cccc3Cl)c(N)nc2n1	201 to 204
Cn1cc(-c2cc(-c3cnc4[nH]ccc4c3)ccn2)n(-c2ccccc2)c1=O	264
CCCCCCCCCCCCCCOc1ccc(CC(=O)Nc2ccccc2CBr)cc1	100 to 103
CC(C)(C)OC(=O)N1CCN(C(=O)c2ccncc2)CC1	139 to 140
O=C(O)C1CCc2c(c3ccccc3n2C(=O)c2ccccc2)C1 (stereo not drawn)	188 to 190
O=C(Nc1ccc(Nc2ccccc2)cc1)OCCc1ccc([N+](=O)[O-])cc1	146 to 148
